Results as given in US7709482B2, “Polycyclic heteroaryl substituted triazoles useful as Axl inhibitors” (Rigel Pharmaceuticals, Inc., priority 2006, dated 2010).

biological target: T1, Axl (Homo sapiens, UniProt P30530); test: Phospho-Akt In-Cell Western Assay (inhibition of Axl activity after Axl-antibody cross-linking); assay type: cell-based; settings: Hela cells, phospho-Akt chemiluminescence normalized to relative cell number; compounds of formula (Ia), Table 1; read-out: IC50
T1 construct: endogenous in cells; host or cells: HeLa cells
T1 sequence (P30530 26-894): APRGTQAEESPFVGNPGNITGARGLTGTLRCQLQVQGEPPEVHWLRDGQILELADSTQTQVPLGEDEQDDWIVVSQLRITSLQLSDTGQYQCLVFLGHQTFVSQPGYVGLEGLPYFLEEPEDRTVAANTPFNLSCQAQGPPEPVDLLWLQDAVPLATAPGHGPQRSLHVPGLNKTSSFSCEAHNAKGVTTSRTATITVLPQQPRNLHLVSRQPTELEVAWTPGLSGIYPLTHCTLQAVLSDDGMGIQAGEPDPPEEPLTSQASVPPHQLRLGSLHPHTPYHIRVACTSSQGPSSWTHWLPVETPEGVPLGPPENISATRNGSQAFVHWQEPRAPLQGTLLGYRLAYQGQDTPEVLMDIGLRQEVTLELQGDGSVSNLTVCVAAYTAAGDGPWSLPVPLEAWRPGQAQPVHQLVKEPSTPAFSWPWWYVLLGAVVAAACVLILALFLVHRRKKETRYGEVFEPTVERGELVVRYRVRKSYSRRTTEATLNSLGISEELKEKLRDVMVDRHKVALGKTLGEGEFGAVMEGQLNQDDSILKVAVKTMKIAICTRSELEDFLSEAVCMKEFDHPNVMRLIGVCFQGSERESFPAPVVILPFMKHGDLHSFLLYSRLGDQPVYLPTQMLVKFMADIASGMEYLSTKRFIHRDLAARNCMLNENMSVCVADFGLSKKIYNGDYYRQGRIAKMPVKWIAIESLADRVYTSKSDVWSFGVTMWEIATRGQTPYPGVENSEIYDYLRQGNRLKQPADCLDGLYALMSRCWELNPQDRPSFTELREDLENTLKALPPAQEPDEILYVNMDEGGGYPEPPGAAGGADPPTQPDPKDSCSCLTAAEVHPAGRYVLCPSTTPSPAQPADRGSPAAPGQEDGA
Outline: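 Phospho-Akt was detected in formaldehyde-fixed cells by in-cell immunostaining with HRP chemiluminescence. Before fixation, HeLa cells kept 24 h in low-serum medium containing 500 ng/mL Axl/Fc received compound for 1 h at 37 °C, followed by 5-min Axl activation through antibody clustering.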

**Q.** With `CN1CCN(c2ccc(Nc3nc(N)n(C4=Nc5ccccc5Sc5ccccc54)n3)cc2)CC1` [Compound 50, 1-((Z)-dibenzo[b,f][1,4]thiazepin-11-yl)-N^3-(4-(N-methylpiperazin-1-yl)phenyl)-1H-1,2,4-triazole-3,5-diamine] as the compound, how does the IC50 read?
**A.** 1 to 10 µM

**Q.** How did the IC50 turn out when `CCN(CC)C1CCN(c2ccc(Nc3nc(N)n(C4=Nc5ccccc5Sc5ccccc54)n3)cc2F)CC1` [Compound 51, 1-((Z)-dibenzo[b,f][1,4]thiazepin-11-yl)-N^3-(3-fluoro-4-(4-diethylaminopiperidin-1-yl)phenyl)-1H-1,2,4-triazole-3,5-diamine] was run?
**A.** 1 to 10 µM

**Q.** Which IC50 does the source give for `COc1ccc2c(c1)CCCc1cc(-n3nc(Nc4ccc(N5CCC(N6CCCC6)CC5)c(F)c4)nc3N)nnc1-2` [Compound 52, 1-(6,7-dihydro-5H-9-methoxybenzo[6,7]cyclo-hepta[1,2-c]pyridazin-3-yl)-N^3-(3-fluoro-4-(4-(pyrrolidin-1-yl)piperidin-1-yl)phenyl)-1H-1,2,4-triazole-3,5-diamine] here?
**A.** < 1 µM

**Q.** How did the IC50 turn out when `Nc1nc(Nc2ccc(N3CCC(N4CCCC4)CC3)c(F)c2)nn1-c1cc2c(nn1)-c1cc(F)ccc1CCC2` [Compound 53, 1-(6,7-dihydro-5H-10-fluorobenzo[6,7]cyclo-hepta[1,2-c]pyridazin-3-yl)-N^3-(3-fluoro-4-(4-(pyrrolidin-1-yl)piperidin-1-yl)phenyl)-1H-1,2,4-triazole-3,5-diamine] was run?
**A.** < 1 µM

**Q.** `Nc1nc(Nc2ccc(OCCN3CCCC3)c(F)c2)nn1-c1cc2c(nn1)-c1cc(F)ccc1CCC2` [Compound 54, 1-(6,7-dihydro-5H-10-fluorobenzo[6,7]cyclo-hepta[1,2-c]pyridazin-3-yl)-N^3-(3-fluoro-4-(2-(pyrrolidin-1-yl)ethoxy)phenyl)-1H-1,2,4-triazole-3,5-diamine] was tested. Which IC50 did it give?
**A.** < 1 µM

**Q.** Which IC50 does the source give for `Nc1nc(Nc2ccc(N3CCN(C4CCCCC4)CC3)c(F)c2)nn1-c1cc2c(nn1)-c1cc(F)ccc1CCC2` [Compound 55, 1-(6,7-dihydro-5H-10-fluorobenzo[6,7]cyclo-hepta[1,2-c]pyridazin-3-yl)-N^3-(3-fluoro-4-(4-(cyclohexyl)piperazin-1-yl)phenyl)-1H-1,2,4-triazole-3,5-diamine] here?
**A.** 10 to 20 µM

**Q.** `COc1ccc2c(c1)CCCc1cc(-n3nc(Nc4ccc(OCCN5CCCC5)c(F)c4)nc3N)nnc1-2` [Compound 56, 1-(6,7-dihydro-5H-9-methoxybenzo[6,7]cyclo-hepta[1,2-c]pyridazin-3-yl)-N^3-(3-fluoro-4-(2-(pyrrolidin-1-yl)ethoxy)phenyl)-1H-1,2,4-triazole-3,5-diamine] was tested. Which IC50 did it give?
**A.** 1 to 10 µM

**Q.** For `COc1ccc2c(c1)CCCc1cc(-n3nc(Nc4ccc(N5CCN(C6CCCCC6)CC5)c(F)c4)nc3N)nnc1-2` [Compound 57, 1-(6,7-dihydro-5H-9-methoxybenzo[6,7]cyclo-hepta[1,2-c]pyridazin-3-yl)-N^3-(3-fluoro-4-(4-(cyclohexyl)piperazin-1-yl)phenyl)-1H-1,2,4-triazole-3,5-diamine], which IC50 is on record?
**A.** > 20 µM

**Q.** For `CN1CCN(C2CCN(c3ccc(Nc4nc(N)n(-c5cc6c(nn5)-c5ccccc5CCC6)n4)cc3F)CC2)CC1` [Compound 58, 1-(6,7-dihydro-5H-benzo[6,7]cyclohepta[1,2-c]pyridazin-3-yl)-N^3-(3-fluoro-4-(4-(4-methylpiperazin-1-yl)piperidin-1-yl)phenyl)-1H-1,2,4-triazole-3,5-diamine], which IC50 is on record?
**A.** < 1 µM

**Q.** Which IC50 does the source give for `CC1CCN(C2CCN(c3ccc(Nc4nc(N)n(-c5cc6c(nn5)-c5ccccc5CCC6)n4)cc3F)CC2)CC1` [Compound 59, 1-(6,7-dihydro-5H-benzo[6,7]cyclohepta[1,2-c]pyridazin-3-yl)-N^3-(3-fluoro-4-(4-(4-methylpiperidin-1-yl)piperidin-1-yl)phenyl)-1H-1,2,4-triazole-3,5-diamine] here?
**A.** < 1 µM

**Q.** `CN(CCOc1ccc(Nc2nc(N)n(-c3cc4c(nn3)-c3ccccc3CCC4)n2)cc1)C1CCCC1` [Compound 60, 1-(6,7-dihydro-5H-benzo[6,7]cyclohepta[1,2-c]pyridazin-3-yl)-N^3-(4-(2-(N-methylcyclopentylamino)-ethoxy)phenyl)-1H-1,2,4-triazole-3,5-diamine] was tested. Which IC50 did it give?
**A.** < 1 µM
